In assay [1] the test system is primary rat cortical neurons. The experiment in a line: neurite outgrow with primary rat cortical neurons (FIGS. 4, 5; Sholl analysis). The format is cell-based. Particulars: FIG. 4. An excerpt:
FIGS. 4 and 5 show the effect of FKBP12 ligands on neurite outgrow with primary rat cortical neurons.

Assay [2] concerns the target FKBP12 (Homo sapiens, UniProt P62942). The experiment in a line: secondary assays with isothermal titration calorimetry and 2D NMR (FIGS. 2, 3). The assay is classed as binding. An excerpt:
The ligand concentration chart refers to the compound having the formula VIII (i.e., p-toluoylthioacetylmorpholine) used as the ligand.
In general terms: Isothermal titration calorimetry measures the heat released or taken up as one component is titrated into another.

FKBP12, sequence (P62942 whole entry, species assumed): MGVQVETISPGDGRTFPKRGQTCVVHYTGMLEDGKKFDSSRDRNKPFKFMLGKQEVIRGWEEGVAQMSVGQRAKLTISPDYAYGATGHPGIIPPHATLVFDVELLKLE

With `CC(C)c1ccc(SCC(=O)N2CCOCC2C(=O)OCCCc2cccnc2)cc1` (centres unmarked) [Compound VII, 3-(pyridine-3-yl)propyl 4-(2-(4-isopropylphenylthio)acetyl)morpholine-3-carboxylate], the “effect on neurite outgrow” value in assay [1] is recorded as “particularly substantial”.
One may read the Kd as a measure of binding affinity in units of concentration. High values mean weaker binding, low ones tighter binding. In the case of `Cc1ccc(SCC(=O)N2CCOCC2)cc1` [VIII], the Kd in assay [2] worked out at 4 µM.

(Values after US20080293721A1, “ARYLTHIOACETAMIDE CARBOXYLATE DERIVATIVES AS FKBP INHIBITORS FOR THE TREATMENT OF NEUROLOGICAL DISEASES” (Burnham Institute for Medical Research, priority 2007, published 2008).)
